Converted amounts (≈) assume the structure as drawn. Where two headings read alike, the source gives them in different places. No end group written: not given here.
Assays:
M. luteus ATCC 10240 [1] = test: Deferred antagonism (overlay) assay, zone of inhibition; type: cell-based, Micrococcus luteus; conditions: relative to wild-type strain
Description: The deferred antagonism assay was performed as previously described^39. S. mutans strains were grown overnight in THyex broth at 37° C. The cultures were diluted to 0.1 OD OD600 and grown to mid-logarithmic phase before diluting to 0.05 OD600. Then, 2 μl of the cultures were spotted on THyex plates in duplicates of triplicates. The wild-type S. mutans JH1140 and S. mutans ΔmutA were used as positive and negative controls for activity, respectively. The plates were incubated for 18 hours in a candle jar at 37° C. After incubation, the strains were heat killed at 65° C. for 90 minutes. Fresh M. luteus grown overnight at 37° C. on THyex plates were used to inoculate pre-warmed THyex broth. The culture was grown to 0.6 to 0.8 OD before diluting to 0.2 OD600. The culture was further diluted 25-fold in melted (42° C.) THyex top agar. Approximately 5 mL of the top agar solution was spread on the heat killed bioassay plates and allowed to cool for 10 minutes. The plates were then placed in the incubator (at 37° C.) for 18 hours.
Streptococcus mutans ATCC 55676 (wild-type) and the mutants that were at an OD600 of 0.2 were spotted in triplicates on a pre-warmed THyex agar plate (150×15 mm) and allowed to dry. This assay was performed in this manner to ensure that each sample had the same colony size for comparing zones of inhibition. The plate was incubated for 24 hours then placed in an oven at 50° C. for thirty minutes to kill the bacteria before the indicator strain was overlaid. Heat killing the bacteria prevents any further antimicrobial compound production so that results seen are from single day incubation. Zone diameter was measured in millimeters across the plate and compared to wild-type (i.e. zone I for ATCC compared to zone I of Trp4Ala, etc.).

M. luteus ATCC 10240 [2] = type: cell-based, Micrococcus luteus; conditions: for M. luteus ATCC 10240 MIC / M. luteus ATCC 10240 MLC: Table 11
Description: (§1) Minimum Inhibitory Concentrations (MICs) were determined according to previously published protocol^31. A stock solution of the antibiotics tested was first suspended in 50% acetonitrile (ACN) at a concentration 640 μg/mL. This stock was subsequently diluted 2-fold until a final concentration 0.156 μg/mL was reached. Subsequently, 10 μl of each dilution was placed into a well on a 96 well microtiter plate. M. luteus ATCC 10240, S. pneumoniae, and B. subtilis PY79 were grown overnight in THyex at 37° C. Cultures were diluted in the morning to 0.1 OD600 and allowed to grow to 0.6 OD600. This culture was diluted a 100-fold in fresh THyex media and then 400 μl of this culture was added to 10 mL of fresh THyex. The suspension contains approximately 10^5 colony forming units (CFUs). The bacterial suspension (190 μL) was added to each well containing 10 μL of antibiotic suspension or solvent blank. […] Following the 15 minute pretreatment, 190 μL was added to each well as described above. The MIC is described as the […] concentration of antibiotic that prevented visible growth after 24 hours.
FIG. 11 illustrates the bioactivity of various core peptide mutants of mutacin 1130. The activity of the core mutant peptides is expressed as a ratio of the area of the zone of inhibition of each mutant strain to the area of the zone of inhibition of the wild-type strain against indicator strain of Micrococcus luteus. […] The deferred antagonism assay is an overlay assay of the indicator strain onto plates containing heat killed colonies of the mutacin producer strain after growing overnight. Core peptide mutants having inhibitory activity were isolated and the purified products were further evaluated by a standard minimum inhibitory concentration (MIC) assay.

C. accolens ATCC 49725 = test: MIC/MLC assay against C. accolens ATCC 49725; type: cell-based; conditions: THyex broth with 1% Tween 80
S. aureus ATCC 25923 = test: MIC/MLC assay against S. aureus; type: cell-based, Staphylococcus aureus; conditions: Table 11
S. pneumoniae ATCC 27336 = type: cell-based, Streptococcus pneumoniae; conditions: Table 11
Description: as §1, with “hours. […]” for “hours.”

C. accolens KPL 1818 = test: MIC/MLC assay against C. accolens KPL 1818; type: cell-based; conditions: THyex broth with 1% Tween 80
[3] = Pharmacokinetics after intravenous dose in mice; type: in vivo; conditions: 2.5 mg/kg i. v., BALB/c mice; at 70 minutes
Description: The compounds were dissolved in normal saline for all pharmacokinetic studies. An extraction protocol was developed in vitro by the addition of each compound to commercially bought BALB/c mouse serum. The compounds were extracted by the addition of 70% ACN containing 0.1% TFA/30% methanol containing 0.4% formic acid. The extract was then analyzed by LC-MS using a TSQ Vantage Triple Quad mass spectrometer. A standard curve was generated for each compound using known dilutions of the compounds in serum, which was then extracted. The R-squared values for each standard exceeded 0.98. BALB/c mice were used to evaluate pharmacokinetics of the compounds in vivo. A 2.5 mg/kg i. v. dose was evaluated for native mutacin, R13A, S5G, and double mutant S5A:T14G (FIG. 12A). A polynomial second order was used to estimate the peak plasma concentration and half-life of the R13A. […] Possibly, the Dhb14 residue may protect the peptide from trypsin-like proteases in the blood. […] Thus, taking the dynamics of cell death into account and the pharmacokinetics of the R13A, the R13A in serum is above the inhibitory concentration for S. pneumonia long enough to kill the pathogen.

Compound	zone of inhibition / inhibitory activity in deferred antagonism assay (M. luteus ATCC 10240 [1])	MIC (M. luteus ATCC 10240 [2]; ATCC 10240)	C. accolens ATCC 49725 MIC (C. accolens ATCC 49725)	C. accolens ATCC 49725 MLC (C. accolens ATCC 49725)	S. aureus ATCC 25923 MIC (S. aureus ATCC 25923)	S. aureus ATCC 25923 MLC (S. aureus ATCC 25923)	S. pneumonia ATCC 27336 MIC (S. pneumoniae ATCC 27336)	S. pneumonia ATCC 27336 MLC (S. pneumoniae ATCC 27336)	C. accolens KPL 1818 MIC (C. accolens KPL 1818)	C. accolens KPL 1818 MLC (C. accolens KPL 1818)	M. luteus ATCC 10240 MIC (M. luteus ATCC 10240 [2])	M. luteus ATCC 10240 MLC (M. luteus ATCC 10240 [2])	MIC (M. luteus ATCC 10240 [2]; Table 10, indicator strain Micrococcus luteus)	activity relative to wild-type mutacin 1140 (M. luteus) (M. luteus ATCC 10240 [2]; purified variants)	plasma level / clearance from blood [3]
C=C1NC(=O)[C@H](Cc2c[nH]c3ccccc23)NC(=O)[C@H](NC(=O)[C@H](C)NC(=O)[C@@H](N)Cc2ccccc2)CSC[C@@H](C(=O)N[C@H]2C(=O)N3CCC[C@H]3C(=O)NCC(=O)N[C@H](C(=O)N[C@@H](C)C(=O)N[C@@H](CCCNC(=N)N)C(=O)N/C(=C\C)C(=O)NCC(=O)N[C@@H]3CSC[C@@H]4NC(=O)[C@H](Cc5ccc(O)cc5)NC(=O)[C@@H](CS/C=C\NC4=O)NC(=O)[C@H](CC(N)=O)NC(=O)[C@H](Cc4ccccc4)NC3=O)CS[C@H]2C)NC(=O)[C@H](CC(C)C)NC1=O [Mutant Lys2Ala]	larger zone of inhibition	0.125 µg/mL (≈ 0.0566 µM)	–	–	–	–	–	–	–	–	–	–	–	–	–
G15A*: core peptide mutant of mutacin 1140, Glycine 15 replaced by Alanine (FKSWSLCTPGCARTASFNSYCC; ends and bridges not checked; cysteine pairing not given here; UniProt O68586 42-63, looked up, variant G15A)	no change in activity	–	1 micrograms per milliliter	1 micrograms per milliliter	16 micrograms per milliliter	16 micrograms per milliliter	0.5 micrograms per milliliter	0.5 micrograms per milliliter	1 micrograms per milliliter	2 micrograms per milliliter	0.125 micrograms per milliliter	0.125 micrograms per milliliter	–	–	–
S5T: core peptide mutant of mutacin 1140, Serine 5 replaced by Threonine (FKSWTLCTPGCARTGSFNSYCC; UniProt O68586 42-63, looked up, variant S5T) [Mutant S5T]	–	–	>4 micrograms per milliliter	>4 micrograms per milliliter	>32 micrograms per milliliter	>32 micrograms per milliliter	2 micrograms per milliliter	2 micrograms per milliliter	>4 micrograms per milliliter	>4 micrograms per milliliter	4 micrograms per milliliter	4 micrograms per milliliter	–	–	–
C=C1NC(=O)[C@H](Cc2c[nH]c3ccccc23)NC(=O)[C@H](NC(=O)[C@H](CCCCN)NC(=O)[C@@H](N)Cc2ccccc2)CSC[C@@H](C(=O)N[C@H]2C(=O)N3CCC[C@H]3C(=O)NCC(=O)N[C@H](C(=O)N[C@@H](C)C(=O)N[C@@H](CCCNC(=N)N)C(=O)N/C(=C\C)C(=O)NCC(=O)N[C@@H]3CSC[C@@H]4NC(=O)[C@H](Cc5ccc(O)cc5)NC(=O)[C@@H](CS/C=C\NC4=O)NC(=O)[C@H](CC(N)=O)NC(=O)[C@H](Cc4ccccc4)NC3=O)CS[C@H]2C)NC(=O)[C@H](C)NC1=O [Mutant Leu6Ala]	larger zone of inhibition	–	–	–	–	–	–	–	–	–	–	–	0.0625 µg/mL (≈ 0.0281 µM)	two-fold more active	–
S5G:R13A:T14A: core peptide mutant of mutacin 1140, positions 5, 13 and 14 replaced by Glycine, Alanine and Alanine (FKSWGLCTPGCAAAGSFNSYCC; ends and bridges not checked; cysteine pairing not given here; UniProt O68586 42-63, looked up, variant S5G R13A T14A)	–	–	>4 micrograms per milliliter	>4 micrograms per milliliter	>32 micrograms per milliliter	>32 micrograms per milliliter	8 micrograms per milliliter	>16 micrograms per milliliter	>4 micrograms per milliliter	>4 micrograms per milliliter	2 micrograms per milliliter	16 micrograms per milliliter	–	–	–
C-terminal fluorescein conjugate of mutacin 1140: mu1140-COOH coupled to 5-(aminoacetamido)fluorescein at the C-terminus (FKSWSLCTPGCARTGSFNSYCC-{5‑(aminoacetamido)fluorescein}; ends and bridges not checked; UniProt O68586 42-63, looked up)	has the inhibitory activity	–	–	–	–	–	–	–	–	–	–	–	–	–	–
CC(C)C[C@@H]1NC(=O)[C@H](C)NC(=O)[C@H](Cc2c[nH]c3ccccc23)NC(=O)C(NC(=O)[C@H](CCCCN)NC(=O)[C@@H](N)Cc2ccccc2)CSC[C@@H](C(=O)NC2C(=O)N3CCC[C@H]3C(=O)NCC(=O)N[C@H](C(=O)N[C@@H](C)C(=O)N[C@@H](CCCNC(=N)N)C(=O)NCC(=O)NCC(=O)NC3CSC[C@@H]4NC(=O)[C@H](Cc5ccc(O)cc5)NC(=O)[C@@H](CS/C=C\NC4=O)NC(=O)[C@H](CC(N)=O)NC(=O)[C@H](Cc4ccccc4)NC3=O)CSC2C)NC1=O (some centres unmarked) [S5A:T14G]	–	–	–	–	–	–	–	–	–	–	–	–	–	–	performed the worst
